Laboratory results as given in ChEMBL document CHEMBL1139702, “4'-Alkoxyl substitution enhancing the anti-mitotic effect of 5-(3',4',5'-substituted)anilino-4-hydroxy-8-nitroquinazolines as a novel class of anti-microtubule agents” (Bioorg Med Chem Lett, 2006).
The source made the active and inactive calls. No cut-off for these calls is given here.

Assays:
A549 [1] = assay: Cell cycle arrest in A549 cells by accumulation at G2/M phase at 50 uM after 24 hrs; format: functional, cell-based; conditions: Homo sapiens
HGC-27 [2] = assay: Antiproliferative activity against HGC27 cells at 50 uM by MTT assay; format: functional, cell-based; conditions: Homo sapiens
HGC-27 [3] = assay: Cell cycle arrest in HGC27 cells by accumulation at G2/M phase at 50 uM after 24 hrs; format: functional; conditions: Homo sapiens, HGC-27, 24 h
HGC-27 [4] = assay: Antiproliferative activity against HGC27 cells by MTT assay; format: functional, cell-based; conditions: Homo sapiens
A549 [5] = assay: Antiproliferative activity against A549 cells by MTT assay; format: functional, cell-based; conditions: Homo sapiens

`COc1cc(Nc2ccc([N+](=O)[O-])c3ncnc(O)c23)cc(OC)c1OC` was tested, and the Activity (A549 [1]) was “Active”, the Activity (HGC-27 [2]) was “Active” and the inhibition at 50 µM (HGC-27 [3]) was 81%.
`O=[N+]([O-])c1ccc(Nc2ccc(OCCCN3CCOCC3)cc2)c2c(O)ncnc12` was tested, and the Activity (HGC-27 [2]) was “Active”.
With `COc1ccc(Nc2ccc([N+](=O)[O-])c3ncnc(O)c23)cc1Cl` the IC50 (HGC-27 [4]) was 20 µM and the IC50 (A549 [5]) was 20 µM.
For `O=[N+]([O-])c1ccc(Nc2ccc(OCc3ccccc3)c(Cl)c2)c2c(O)ncnc12`, the Activity (HGC-27 [2]) was “Active”.
In the case of `COC(=O)/C=C\c1ccc(C(=O)OCCOc2ccc(Nc3ccc([N+](=O)[O-])c4ncnc(O)c34)cc2)cc1`, the Activity (HGC-27 [2]) is reported as “Active”.
